Assay results reported in ChEMBL document CHEMBL1201862, “PubChem BioAssay data set” (2004).
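A five-concentration, 48-hour dose response in 96-well plates underlies each endpoint, interpolated linearly between surrounding concentrations. GI50 marks 50% less growth.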 The source made the active and inactive calls. Cut-off read from the data, not from the text of the source: active = GI50 up to about 1.1 µM and inactive = higher.

Columns and labels:
Assay in all cases: DTP human tumour cell line panel, 48 h
[1] = tested on: 786-0
[2] = tested on: SF-268
[3] = tested on: MDA-N
[4] = tested on: EKVX
[5] = tested on: HL-60
[6] = tested on: A549
[7] = tested on: Malme-3M
[8] = tested on: CCRF-CEM
[9] = tested on: ACHN
[10] = tested on: NCI-H226
[11] = tested on: DU-145
[12] = tested on: U-251
[13] = tested on: MOLT-4
[14] = tested on: HCC 2998
[15] = tested on: RPMI-8226
[16] = tested on: HT-29
[17] = tested on: KM12
[18] = tested on: SK-MEL-5
[19] = tested on: NCI/ADR-RES
[20] = tested on: OVCAR-8

Row | SMILES | GI50 [1] | GI50 [2] | GI50 [3] | GI50 [4] | GI50 [5] | GI50 [6] | GI50 [7] | GI50 [8] | GI50 [9] | GI50 [10] | GI50 [11] | GI50 [12] | GI50 [13] | GI50 [14] | GI50 [15] | GI50 [16] | GI50 [17] | GI50 [18] | GI50 [19] | GI50 [20]
1 | COc1cc(O)c2c(c1)C(O)C(O)CC1OC1C(=O)/C=C/CC(C)OC2=O (stereo not given) | 3.52 µM (inactive) | 10.4 µM (inactive) | 0.454 µM (active) | 8.53 µM (inactive) | 0.216 µM (active) | 20.5 µM (inactive) | 0.029 µM (active) | 1.26 µM (inactive) | 3.2 µM (inactive) | 12.9 µM (inactive) | 15.7 µM (inactive) | 8.18 µM (inactive) | 2.03 µM (inactive) | 6.34 µM (inactive) | 3.1 µM (inactive) | 0.0794 µM (active) | 10.4 µM (inactive) | 1.64 µM (inactive) | 3.68 µM (inactive) | 4.13 µM (inactive)
2 | C/C(=C\c1csc(C)n1)[C@@H]1C[C@@H]2O[C@]2(C)CCC[C@H](C)[C@H](O)[C@@H](C)C(=O)C(C)(C)[C@@H](O)CC(=O)O1 [PATUPILONE] | < 0.0001 µM (active) | < 0.0001 µM (active) | < 0.0001 µM (active) | < 0.0001 µM (active) | < 0.0001 µM (active) | < 0.0001 µM (active) | 0.01 µM (active) | < 0.0001 µM (active) | < 0.0001 µM (active) | < 0.0001 µM (active) | < 0.0001 µM (active) | < 0.0001 µM (active) | < 0.0001 µM (active) | < 0.0001 µM (active) | < 0.0001 µM (active) | < 0.0001 µM (active) | < 0.0001 µM (active) | < 0.0001 µM (active) | < 0.0001 µM (active) | < 0.0001 µM (active)
3 | Cc1cccc2c1C(=O)[C@](C)([C@]1(C)Nc3cccc(C)c3C1=O)N2 | 39.4 µM (inactive) | 16.1 µM (inactive) | 25 µM (inactive) | 23.7 µM (inactive) | < 0.01 µM (active) | 26.4 µM (inactive) | 36.3 µM (inactive) | 17.6 µM (inactive) | 43.9 µM (inactive) | 33 µM (inactive) | 54.1 µM (inactive) | 60.3 µM (inactive) | 23.3 µM (inactive) | 31.9 µM (inactive) | 10.8 µM (inactive) | 29.1 µM (inactive) | 35.6 µM (inactive) | 29.4 µM (inactive) | 27.7 µM (inactive) | 24 µM (inactive)
4 | C[C@@](Br)(C(=O)O)[C@H](Br)C(=O)O | > 100 µM (inactive) | > 100 µM (inactive) | > 100 µM (inactive) | 83.4 µM (inactive) | > 100 µM (inactive) | > 100 µM (inactive) | > 100 µM (inactive) | > 100 µM (inactive) | > 100 µM (inactive) | > 100 µM (inactive) | > 100 µM (inactive) | > 100 µM (inactive) | > 100 µM (inactive) | > 100 µM (inactive) | > 100 µM (inactive) | > 100 µM (inactive) | > 100 µM (inactive) | > 100 µM (inactive) | > 100 µM (inactive) | > 100 µM (inactive)
5 | COC(=O)/C=C\C(C#N)(C#N)/N=C/c1cccs1 | 14.2 µM (inactive) | 15 µM (inactive) | 8.22 µM (inactive) | 9.77 µM (inactive) | 1.63 µM (inactive) | 22.6 µM (inactive) | 2.65 µM (inactive) | 0.533 µM (active) | 1.84 µM (inactive) | 7.53 µM (inactive) | 10.7 µM (inactive) | 16.6 µM (inactive) | 0.982 µM (active) | 18.9 µM (inactive) | 2.11 µM (inactive) | 2 µM (inactive) | 17.2 µM (inactive) | 0.813 µM (active) | 18.4 µM (inactive) | 3.76 µM (inactive)
6 | COC(Cc1ccccc1)NC(C)=O (stereo not given) | > 100 µM (inactive) | > 100 µM (inactive) | > 100 µM (inactive) | > 100 µM (inactive) | > 100 µM (inactive) | > 100 µM (inactive) | > 100 µM (inactive) | > 100 µM (inactive) | > 100 µM (inactive) | > 100 µM (inactive) | > 100 µM (inactive) | > 100 µM (inactive) | > 100 µM (inactive) | > 100 µM (inactive) | > 100 µM (inactive) | > 100 µM (inactive) | > 100 µM (inactive) | > 100 µM (inactive) | > 100 µM (inactive) | > 100 µM (inactive)
7 | N#C[BH2-][n+]1cn(C2CC(O)C(COP(=O)(O)OC3CC(n4c[n+]([BH2-]C#N)c5c(=O)[nH]c(N)nc54)OC3CO)O2)c2nc(N)[nH]c(=O)c21 (stereo not given) | > 100 µM (inactive) | > 100 µM (inactive) | > 100 µM (inactive) | > 100 µM (inactive) | > 100 µM (inactive) | > 100 µM (inactive) | > 100 µM (inactive) | > 100 µM (inactive) | > 100 µM (inactive) | > 100 µM (inactive) | > 100 µM (inactive) | > 100 µM (inactive) | > 100 µM (inactive) | > 100 µM (inactive) | > 100 µM (inactive) | > 100 µM (inactive) | > 100 µM (inactive) | > 100 µM (inactive) | > 100 µM (inactive) | > 100 µM (inactive)
8 | C#CCOC(=O)C(N)CC(N)=O (stereo not given) | > 100 µM (inactive) | > 100 µM (inactive) | > 100 µM (inactive) | > 100 µM (inactive) | > 100 µM (inactive) | > 100 µM (inactive) | > 100 µM (inactive) | > 100 µM (inactive) | > 100 µM (inactive) | > 100 µM (inactive) | > 100 µM (inactive) | > 100 µM (inactive) | > 100 µM (inactive) | > 100 µM (inactive) | > 100 µM (inactive) | > 31.6 µM (inactive) | > 100 µM (inactive) | > 100 µM (inactive) | > 100 µM (inactive) | > 100 µM (inactive)
9 | CC(=O)Nc1ccc2c3c(cc(O)c2c1)N(C(=O)CCCCC(=O)Nc1ccc2c4c(cc(O)c2c1)N(C(=O)OC(C)(C)C)CC4CCl)CC3CCl (stereo not given) | 2.76 µM (inactive) | 0.804 µM (active) | 1.77 µM (inactive) | 12.8 µM (inactive) | 0.42 µM (active) | 7.62 µM (inactive) | 1.39 µM (inactive) | 0.193 µM (active) | 3.2 µM (inactive) | 2.13 µM (inactive) | 0.826 µM (active) | 1.53 µM (inactive) | 0.302 µM (active) | 1.66 µM (inactive) | 3.13 µM (inactive) | 2.82 µM (inactive) | 2.79 µM (inactive) | 1.54 µM (inactive) | 21.7 µM (inactive) | 3.08 µM (inactive)
10 | CC(=O)CC(=O)c1cc2c(=O)oc(C)cc2oc1=O | > 37.5 µM (inactive) | > 37.5 µM (inactive) | > 37.5 µM (inactive) | > 37.5 µM (inactive) | > 37.5 µM (inactive) | > 37.5 µM (inactive) | > 37.5 µM (inactive) | > 37.5 µM (inactive) | > 37.5 µM (inactive) | > 37.5 µM (inactive) | > 37.5 µM (inactive) | > 37.5 µM (inactive) | > 37.5 µM (inactive) | > 37.5 µM (inactive) | > 37.5 µM (inactive) | > 37.5 µM (inactive) | > 37.5 µM (inactive) | > 37.5 µM (inactive) | > 37.5 µM (inactive) | > 37.5 µM (inactive)
11 | Nc1cc(CO)cc(Nc2c3ccccc3nc3occc23)c1 | 29.9 µM (inactive) | 21.3 µM (inactive) | 25.9 µM (inactive) | 67.5 µM (inactive) | 22.8 µM (inactive) | 40.4 µM (inactive) | 92 µM (inactive) | 48.1 µM (inactive) | 29.8 µM (inactive) | 29.1 µM (inactive) | 43.3 µM (inactive) | 45.9 µM (inactive) | 13.7 µM (inactive) | 31.3 µM (inactive) | 26.5 µM (inactive) | 6.76 µM (inactive) | 33.8 µM (inactive) | 23.1 µM (inactive) | 22.4 µM (inactive) | 35.7 µM (inactive)
12 | COc1ccc(/C=C2\CCCc3ccccc3C2=O)cc1 | 0.0561 µM (active) | 0.249 µM (active) | 0.0132 µM (active) | 0.39 µM (active) | 0.279 µM (active) | 0.197 µM (active) | 0.0174 µM (active) | 0.578 µM (active) | 3.15 µM (inactive) | 0.116 µM (active) | 0.185 µM (active) | 0.508 µM (active) | 1.63 µM (inactive) | 0.2 µM (active) | 0.411 µM (active) | 0.0849 µM (active) | 0.158 µM (active) | 0.102 µM (active) | 0.0416 µM (active) | 0.228 µM (active)
13 | CC1=CC(=O)C2=C(C)CCC3C(C)C(=O)OC3C12 (stereo not given) | > 100 µM (inactive) | > 100 µM (inactive) | > 100 µM (inactive) | > 100 µM (inactive) | > 100 µM (inactive) | > 100 µM (inactive) | > 100 µM (inactive) | > 100 µM (inactive) | > 100 µM (inactive) | > 100 µM (inactive) | > 100 µM (inactive) | > 100 µM (inactive) | > 100 µM (inactive) | > 100 µM (inactive) | > 100 µM (inactive) | > 100 µM (inactive) | > 100 µM (inactive) | > 100 µM (inactive) | > 100 µM (inactive) | > 100 µM (inactive)
14 | C[C@H](CCC(=O)O)[C@H]1CC[C@H]2[C@@H]3[C@@H](O)C[C@@H]4C[C@H](O)CC[C@]4(C)[C@H]3CC[C@]12C | > 100 µM (inactive) | > 100 µM (inactive) | > 100 µM (inactive) | > 100 µM (inactive) | 63.5 µM (inactive) | 61.4 µM (inactive) | > 100 µM (inactive) | 60.8 µM (inactive) | > 100 µM (inactive) | > 100 µM (inactive) | > 100 µM (inactive) | 58.6 µM (inactive) | 89.7 µM (inactive) | > 100 µM (inactive) | 38.1 µM (inactive) | > 100 µM (inactive) | 60 µM (inactive) | 62.1 µM (inactive) | 38.7 µM (inactive) | 73.8 µM (inactive)
